From patent publication US20230082555A1, “Composition for Medium” (Kataoka Corporation, priority 2019, published 2023)

System: human fibroblasts
Assay: Presence or absence of fatty acids in serum-free induction medium, Ucp1 and Ckmt1 by QRT-PCR (Test Example E)
Type: cell-based
Conditions: brown adipocytes induced from fibroblasts; FIGS. 8 and 9
Protocol: After the human fibroblasts reached 80% to 90% confluency, the medium in the dish was replaced with SFBAM which is serum-free or SFBAM in which albumin and fatty acid components were changed to the combinations shown in Table 10 of the compounds shown in Table 9, both of which contain all the compounds shown in Table 3, and the human fibroblasts were cultured in said respective media for three weeks (Examples 11 to 14). The medium was changed every three days. Thereafter, the expression amounts of marker genes, Ucp1 and Ckmt1, specific for brown adipose tissue were quantified by QRT-PCR. Symbol 1 (control) in the figures represents the result in SFBAM without the compounds shown in Table 3 necessary for induction into brown adipocytes.

Substance: fatty acid-unbound albumin: Fatty acid-free albumin, in which a fatty acid is removed from an albumin (017-15146, FUJIFILM Wako)
- Expression levels of Ucp1 genes versus induction with fatty acid-bound albumin: much higher
